Laboratory results published in patent US12404232B2, “Compounds and compositions for intracellular delivery of therapeutic agents” (ModernaTX, Inc., priority 2015, dated 2025).

Assays:
[1] = Encapsulation of RNA by the nanoparticle composition (QUANT-IT RIBOGREEN RNA assay); type: physicochemical
Description: The efficiency of encapsulation of a therapeutic and/or prophylactic describes the amount of therapeutic and/or prophylactic that is encapsulated or otherwise associated with a nanoparticle composition after preparation, relative to the initial amount provided. The encapsulation efficiency is desirably high (e.g., close to 100%). The encapsulation efficiency may be measured, for example, by comparing the amount of therapeutic and/or prophylactic in a solution containing the nanoparticle composition before and after breaking up the nanoparticle composition with one or more organic solvents or detergents. Fluorescence may be used to measure the amount of free therapeutic and/or prophylactic (e.g., RNA) in a solution. For the nanoparticle compositions described herein, the encapsulation efficiency of a therapeutic and/or prophylactic may be at least 50%, for example 50%, 55%, 60%, 65%, 70%, 75%, 80%, 85%, 90%, 91%, 92%, 93%, 94%, 95%, 96%, 97%, 98%, 99%, or 100%. In some embodiments, the encapsulation efficiency may be at least 80%. In certain embodiments, the encapsulation efficiency may be at least 90%.
For nanoparticle compositions including an RNA, a QUANT-IT™ RIBOGREEN® RNA assay (Invitrogen Corporation Carlsbad, CA) can be used to evaluate the encapsulation of an RNA by the nanoparticle composition. The samples are diluted to a concentration of approximately […] in a TE buffer solution (10 mM Tris-HCl, 1 mM EDTA, pH 7.5). 50 μL of the diluted samples are transferred to a polystyrene 96 well plate and either 50 μL of TE buffer or 50 μL of a 2% Triton X-100 solution is added to the wells. The plate is incubated at a temperature of 37° C. for 15 minutes. The RIBOGREEN® reagent is diluted 1:100 in TE buffer, and 100 μL of this solution is added to each well. The fluorescence intensity can be measured using a fluorescence plate reader (Wallac Victor 1420 Multilablel Counter; Perkin Elmer, Waltham, MA) at an excitation wavelength of, for example, about 480 nm and an emission wavelength of, for example, about 520 nm. The fluorescence values of the reagent blank are subtracted from that of each of the samples and the percentage of free RNA is determined by dividing the fluorescence intensity of the intact sample (without addition of Triton X-100) by the fluorescence value of the disrupted sample (caused by the addition of Triton X-100).
Initial studies were performed to compare the delivery efficiency of nanoparticle compositions including various compounds according to Formula (I), (IA), (II), (IIa), (IIb), (IIc), (IId) or (IIe). The cationic lipid MC3 is a current standard in the art. Accordingly, the standard MC3 formulation including about 50 mol % MC3, about 10 mol % DSPC, about 38.5 mol % cholesterol, and about 1.5 mol % PEG-DMG was used as a basis for this study. Nanoparticle compositions including DSPC as a phospholipid, cholesterol as a structural lipid, PEG-DMG as a PEG lipid, an RNA, and a compound according to Formula (I), (IA), (II), (IIa), (IIb), (IIc), (IId) or (IIe) selected from Compounds 1-159, 168-170, and 173-175 were prepared according to or via methods similar to those described in Examples 1 and 2. The ratios of the lipids were 50:10:38.5:1.5 mol % for the lipid according to Formula (I), (IA), (II), (IIa), (IIb), (IIc), (IId) or (IIe):DSPC:cholesterol:PEG-DMG. The RNA used was an mRNA encoding G5 luciferase (Luc) or G5 hEPO. Tables 1A-1B summarize the content and characteristics of the formulations. […]

[2] = system: mice; experiment: Luc expression (total flux) after intramuscular administration; type: in vivo; settings: 6 hours after intramuscular administration, Luc mRNA and H10 mRNA
[3] = system: Cynomolgus monkeys; experiment: Anti-HA (anti-hemagglutinin) antibody expression in Cynomolgus monkeys after intravenous infusion; type: in vivo; settings: i.v. infusion 60 minutes
Experimental: Results of hEPO expression studies were validated using a standard MC3 formulation and a nanoparticle composition containing Compound 18 including an mRNA encoding an anti-hemagglutinin (anti-HA) antibody. Cynomolgus monkeys were administered a single dose of 0.1 mpk or 0.3 mpk of a nanoparticle composition containing Compound 18 (see Table 33; prepared according to Example 2) including an mRNA encoding anti-HA antibody via intravenous infusion for 60 minutes.

[4] = hEPO mRNA, (50:10:38.5:1.5) (Table 10)

Row | SMILES | EE (%) [1, 4] [%] | EE (%) ([1]; mRNA encoding anti-HA antibody (Table 33)) | Total flux (p/s) 0.01 mpk Dose [2] [p/s] | AUC ([3]; dose 0.1 mpk) [µg·h/mL] | AUC ([3]; dose 0.3 mpk) [µg·h/mL] | Total flux (p/s) 0.001 mpk Dose [2] [p/s] | EE (%) ([1]; formulated with hEPO mRNA (Table 1B)) | EE (%) ([1]; nanoparticle composition 50:10:38.5:1.5 mol % (Table 1A))
1 | CCCCCCCCCOC(=O)CCCCCCCN(CCO)CCCCCCCC(=O)OC(CCCCCCCC)CCCCCCCC [Compound 18, Heptadecan-9-yl 8-((2-hydroxyethyl)(8-(nonyloxy)-8-oxooctyl)amino)octanoate] | 97.34 | 79.3 | 8.84E+07 | 354.3 | 1055 |  |  | 
2 | CCCCCCCCCCCOC(=O)CCCCCN(CCO)CCCCCCCC(=O)OC(CCCCCCCC)CCCCCCCC [Compound 25, Heptadecan-9-yl 8-((2-hydroxyethyl)(6-oxo-6-(undecyloxy)hexyl)amino)octanoate] |  |  | 9.96E+07 |  |  | 3.53E+06 |  | 
3 | CCCCCC=CCC=CCCCCCCCCC(CCCCCCCCC=CCC=CCCCCC)OC(=O)CCCN(C)C (centres unmarked) [MC3, heptatriaconta-6,9,28,31-tetraen-19-yl 4-(dimethylamino)butanoate, reference compound] | 97.22 |  | 3.68E+07 | 77.05 | 235.7 | 2.76E+06 | 99.01 | 97.3
